# From US12428394B2, “2,4-disubstituted pyrimidine derivative, preparation method therefor and use thereof” (CHENGDU ZENITAR BIOMEDICAL TECHNOLOGY CO., LTD., priority 2019, dated 2025)
# Legend:
# FLT3 = target: T1, FLT3 (Homo sapiens, UniProt P36888); test: In vitro kinase activity experiment, FLT3; assay type: biochemical; details: 40 min; inhibition rate of enzyme at 500 nM; measured by Eurofins; read-out: Kinase activity @ 500 nM (%) FLT3
# T1 construct: purchased Eurofins
# T1 sequence (P36888 27-993): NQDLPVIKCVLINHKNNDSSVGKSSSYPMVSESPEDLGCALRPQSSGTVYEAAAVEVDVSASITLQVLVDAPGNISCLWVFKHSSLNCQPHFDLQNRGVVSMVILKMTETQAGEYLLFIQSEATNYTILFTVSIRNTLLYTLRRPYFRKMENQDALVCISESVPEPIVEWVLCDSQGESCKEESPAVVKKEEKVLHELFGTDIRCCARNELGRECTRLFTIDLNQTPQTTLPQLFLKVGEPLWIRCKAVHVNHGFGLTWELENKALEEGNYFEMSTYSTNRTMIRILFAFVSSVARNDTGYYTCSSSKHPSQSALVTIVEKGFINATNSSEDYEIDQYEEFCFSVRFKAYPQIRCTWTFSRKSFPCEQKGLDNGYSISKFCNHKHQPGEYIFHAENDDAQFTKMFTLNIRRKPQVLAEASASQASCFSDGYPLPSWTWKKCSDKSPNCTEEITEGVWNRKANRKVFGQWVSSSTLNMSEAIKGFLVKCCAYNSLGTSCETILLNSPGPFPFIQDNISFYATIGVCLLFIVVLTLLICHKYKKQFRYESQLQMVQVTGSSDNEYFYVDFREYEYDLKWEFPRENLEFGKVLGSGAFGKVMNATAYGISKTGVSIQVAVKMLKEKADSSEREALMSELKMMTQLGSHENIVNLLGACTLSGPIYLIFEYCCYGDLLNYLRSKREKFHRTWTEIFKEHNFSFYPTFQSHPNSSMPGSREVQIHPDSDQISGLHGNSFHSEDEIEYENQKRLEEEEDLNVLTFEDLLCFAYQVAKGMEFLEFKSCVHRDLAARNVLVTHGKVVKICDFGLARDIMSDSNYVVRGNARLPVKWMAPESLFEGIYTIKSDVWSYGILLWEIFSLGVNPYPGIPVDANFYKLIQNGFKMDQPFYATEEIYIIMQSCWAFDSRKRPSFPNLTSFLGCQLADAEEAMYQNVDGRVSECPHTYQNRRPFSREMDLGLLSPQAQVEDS
# Protocol: (§1) Buffer solution ([…], pH 7.0, 0.2 mm EDTA, 10 mM mncl2), kinase to be tested, substrate of kinase to be tested, 10 mM magnesium acetate and γ33P-ATP solution, and compounds with different concentrations were added to a reaction tube in turn, then MgATP was added to initiate the enzyme reaction process, and incubated at room temperature for 40 min. Then, the reaction was terminated with 5 μl of […], and 10 μl of the reaction solution was titrated onto the Filtermat A membrane, washed with 75 mM phosphate solution for three times, each time for 5 min., and then washed with methanol once. Finally, the Filtermat A membrane was dried and the scintillation count was carried out.
# [1] = test system: MOLM-13 cells (FLT3-ITD-/+); test: Inhibition of cell proliferation by MTT experiment, MOLM-13; assay type: cell-based, human; details: Homo sapiens, MOLM-13; MTT, 72 h; read-out: IC50 value on cell proliferation inhibition, MOLM-13 FLT3-ITD-/+
# From the text: (§2) MV4-11, MOLM-13 and SET-2 were used to determine the influence of the test compound of the present invention on the activity of cancer cells. MV4-11 and MOLM-13 were human leukemia cell lines from American Type Culture Collection (ATCC), expressing FLT3 receptor and containing FLT3-ITD mutation; and SET-2 was a primary thrombocythemia cell purchased from Chengdu Bowerston Biotechnology Co., Ltd., China, continuously expressing JAK2 receptor and containing the mutation of V617F.
# (§3) MV4-11, MOLM-13 and SET-2 cells were filled in a 96-well petri dish with 100 μL IMDM as the medium, containing 10% fetal bovine serum (100 mL/bottle, purchased from Grassland Lvye Bio-Engineering Materials Co., Ltd. and cryopreserved at −20° C.), and with 10,000-15,000 cells in each well. […] In each group, 3-5 replicate wells were set and incubated in 5% CO2 at 37° C. for 72 h. At the endpoint, 20 μL MTT (5 mg/mL) was added to each well, and the cells were incubated for another 1-3 h.
# (§4) After the inhibition rate of each concentration of compound on cell proliferation activity was calculated, the dose-response curve and IC50 value were fitted by Graphpad prism software according to the compound treatment concentrations and corresponding inhibition rates.
# SET-2 cells (JAK2 V617F) = test: Inhibition of cell proliferation by MTT experiment, SET-2; assay type: cell-based; details: Homo sapiens, SET-2; MTT, 72 h; read-out: IC50 value on cell proliferation inhibition, SET-2 (V617F)
# From the text: as §2, §3, §4
# JAK2 = target: T2, JAK2 (Homo sapiens, UniProt O60674); test: In vitro kinase activity experiment, JAK2; assay type: biochemical; details: inhibition rate of enzyme at 500 nM; measured by Eurofins
# T2 construct: purchased Eurofins
# T2 sequence (O60674 whole entry): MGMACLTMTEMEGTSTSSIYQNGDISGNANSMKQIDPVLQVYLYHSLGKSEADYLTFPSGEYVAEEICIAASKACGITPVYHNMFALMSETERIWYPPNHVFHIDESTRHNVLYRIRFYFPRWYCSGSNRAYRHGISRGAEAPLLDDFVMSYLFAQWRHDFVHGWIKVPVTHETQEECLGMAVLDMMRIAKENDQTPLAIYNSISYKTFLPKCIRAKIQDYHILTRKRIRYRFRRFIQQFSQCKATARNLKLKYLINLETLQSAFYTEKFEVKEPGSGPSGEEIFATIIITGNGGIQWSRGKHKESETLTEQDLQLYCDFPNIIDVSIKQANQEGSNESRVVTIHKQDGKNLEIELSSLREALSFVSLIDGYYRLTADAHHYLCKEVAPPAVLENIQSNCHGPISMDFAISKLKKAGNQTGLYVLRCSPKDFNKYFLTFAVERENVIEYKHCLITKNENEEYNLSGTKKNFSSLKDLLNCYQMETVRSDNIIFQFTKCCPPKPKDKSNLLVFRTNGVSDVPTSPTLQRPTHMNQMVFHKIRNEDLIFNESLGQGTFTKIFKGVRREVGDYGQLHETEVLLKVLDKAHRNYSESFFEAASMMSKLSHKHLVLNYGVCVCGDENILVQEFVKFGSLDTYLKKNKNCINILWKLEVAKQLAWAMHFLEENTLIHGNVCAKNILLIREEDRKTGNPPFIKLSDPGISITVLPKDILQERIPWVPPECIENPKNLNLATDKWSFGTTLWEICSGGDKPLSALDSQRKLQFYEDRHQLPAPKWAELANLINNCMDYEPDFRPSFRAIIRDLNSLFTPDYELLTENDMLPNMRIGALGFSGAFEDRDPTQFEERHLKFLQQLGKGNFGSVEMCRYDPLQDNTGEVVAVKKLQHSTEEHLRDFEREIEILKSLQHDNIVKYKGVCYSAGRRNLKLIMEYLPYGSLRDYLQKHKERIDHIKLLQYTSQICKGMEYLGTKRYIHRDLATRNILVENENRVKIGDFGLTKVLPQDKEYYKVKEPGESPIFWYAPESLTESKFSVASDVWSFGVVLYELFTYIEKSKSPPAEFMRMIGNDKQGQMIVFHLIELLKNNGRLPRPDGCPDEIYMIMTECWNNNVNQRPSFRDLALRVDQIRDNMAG
# Protocol: as §1
# [2] = test system: MV4-11 cells (FLT3-ITD+/+); test: Inhibition of cell proliferation by MTT experiment, MV4-11; assay type: cell-based, human; details: Homo sapiens, MV4-11; MTT, 72 h; read-out: IC50 value on cell proliferation inhibition, MV4-11 FLT3-ITD+/+
# From the text: as §2, §3, §4
SMILES,inhibition at 0.5 µM (FLT3) [%],IC50 [1] [µM],Kinase activity @ 500 nM (%) JAK2 (JAK2) [%],IC50 [2] [µM],IC50 (SET-2 cells (JAK2 V617F)) [µM]
"CC(C)N1CCN(Cc2ccc(Nc3ncc(F)c(-c4ccc(CN5CCCC5)o4)n3)nc2)CC1 [CLJ-1, 5-fluoro-N-(5-((4-isopropylpiperazine-1-yl)methyl)pyridine-2-yl)-4-(5-(pyrrolidine-1-ylmethyl)furan-2-yl) pyrimidine-2-amine]",33,0.1 to 1,46,0.1 to 1,> 1
"CC(C)N1CCN(Cc2ccc(Nc3ncc(F)c(-c4ccc(CN5CCc6ccccc65)o4)n3)nc2)CC1 [CLJ-3, 5-fluoro-4-(5-(dihydroindole-1-ylmethyl)furan-2-yl)-N-(5-((4-isopropylpiperazine-1-yl)methyl)pyridine-2-yl) pyrimidine-2-amine]",29,0.1 to 1,45,0.1 to 1,> 1
"CCCn1cc(-c2nc(Nc3ccc(N4CCN(C)CC4)cc3F)ncc2F)cn1 [CLJ-6, 5-fluoro-N-(2-fluoro-4-(4-methylpiperazine-1-yl)phenyl)-4-(1-propyl-1H-pyrazol-4-yl) pyrimidine-2-amine]",34,> 1,30,> 1,> 1
"CCCn1cc(-c2nc(Nc3ccc(N4CCN(C)CC4)c(F)c3)ncc2F)cn1 [CLJ-7, 5-fluoro-N-(3-fluoro-4-(4-methylpiperazine-1-yl)phenyl)-4-(1-propyl-1H-pyrazol-4-yl) pyrimidine-2-amine]",28,0.1 to 1,38,0.1 to 1,> 1
"CCCn1cc(-c2nc(Nc3ccc(N4CCN(CC)CC4)c(F)c3)ncc2F)cn1 [CLJ-9, 5-fluoro-N-(3-fluoro-4-(4-ethylpiperazine-1-yl)phenyl)-4-(1-propyl-1H-pyrazole-4-yl) pyrimidine-2-amine]",20,0.1 to 1,27,0.01 to 0.1,> 1
"CCCCn1cc(-c2nc(Nc3ccc(N4CCN(C)CC4)c(F)c3)ncc2F)cn1 [CLJ-10, 5-fluoro-N-(3-fluoro-4-(4-methylpiperazine-1-yl)phenyl)-4-(1-butyl-1H-pyrazol-4-yl) pyrimidine-2-amine]",25,0.1 to 1,37,> 1,> 1
"CCCN1CCC(n2cc(-c3nc(Nc4ccc(N5CCN(C)CC5)c(F)c4)ncc3F)cn2)CC1 [CLJ-12, 5-fluoro-N-(3-fluoro-4-(4-methylpiperazine-1-yl)pheny)-4-(1-(1-propylpiperidine-4-yl)-1H-pyrazole-4-yl) pyrimidine-2-amine]",20,> 1,27,> 1,> 1
"CCCCN1CCC(n2cc(-c3nc(Nc4ccc(N5CCN(C)CC5)c(F)c4)ncc3F)cn2)CC1 [CLJ-13, 5-fluoro-N-(3-fluoro-4-(4-methylpiperazine-1-yl)phenyl)-4-(1-(1-butylpiperidine-4-yl)-1H-pyrazole-4-yl) pyrimidine-2-amine]",95,0.1 to 1,89,0.01 to 0.1,> 1
Cc1c(-c2nc(Nc3ccc(N4CCN(C5CCN(C)CC5)CC4)c(F)c3)ncc2F)cnn1C [CLJ-15],94,0.1 to 1,93,0.01 to 0.1,> 1
"CN1CCN(c2ccc(Nc3ncc(F)c(-c4cnn(C5CCCC5)c4)n3)cc2F)CC1 [CLJ-16, 5-fluoro-N-(3-fluoro-4-(4-methylpiperazine-1-yl)phenyl)-4-(1-cyclopentyl-1H-pyrazol-4-yl) pyrimidine-2-amine]",95,0.1 to 1,96,0.01 to 0.1,> 1
"CN(C)C1CCN(c2ccc(Nc3ncc(F)c(-c4cnn(C5CCCC5)c4)n3)cc2F)CC1 [CLJ-18, 5-fluoro-N-(3-fluoro-4-(4-dimethylaminopiperidine-1-yl)phenyl)-4-(1-cyclopentyl-1H-pyrazole-4-yl) pyrimidine-2-amine]",93,0.1 to 1,93,0.01 to 0.1,0.1 to 1

# Continued, in another order:
inhibition at 0.5 µM (FLT3) [%],IC50 [1] [µM],Kinase activity @ 500 nM (%) JAK2 (JAK2) [%],IC50 [2] [µM],SMILES,IC50 (SET-2 cells (JAK2 V617F)) [µM]
25,0.1 to 1,30,0.1 to 1,CCN1CCN(c2ccc(Nc3ncc(F)c(-c4ccc(CN5CCCC5)o4)n3)nc2)CC1 [CLJ-2],> 1
28,0.1 to 1,38,0.1 to 1,"CCCn1cc(-c2nc(Nc3cc(CN4CCCC(C)C4)c(F)cn3)ncc2F)cn1 (stereo not shown) [CLJ-4, 5-fluoro-N-(5-fluoro-4-((3-methylpiperidine-1-yl)methyl)pyridine-2-yl)-4-(1-propyl-1H-pyrazole-4-yl) pyrimidine-2-amine]",> 1
34,0.1 to 1,40,0.1 to 1,"CCCn1cc(-c2nc(Nc3cc(CN4CCN(CC)CC4)c(F)cn3)ncc2F)cn1 [CLJ-5, 5-fluoro-N-(5-fluoro-4-((4-ethylpiperazine-1-yl)methyl)pyridine-2-yl)-4-(1-propyl-1H-pyrazole-4-yl) pyrimidine-2-amine]",> 1
40,0.1 to 1,30,0.1 to 1,"CCCn1cc(-c2nc(Nc3ccc(N4CCN(CC)CC4)cc3F)ncc2F)cn1 [CLJ-8, 5-fluoro-N-(2-fluoro-4-(4-ethylpiperazine-1-yl)phenyl)-4-(1-propyl-1H-pyrazole-4-yl) pyrimidine-2-amine]",> 1
94,0.1 to 1,78,0.01 to 0.1,"CCCN1CCC(n2cc(-c3nc(Nc4ccc(N5CCN(C)CC5)cc4)ncc3F)cn2)CC1 [CLJ-11, 5-fluoro-N-(4-(4-methylpiperazine-1-yl)phenyl)-4-(1-(1-propylpiperidine-4-yl)-1H-pyrazole-4-yl) pyrimidine-2-amine]",> 1
94,0.1 to 1,90,0.01 to 0.1,"CCN1CCN(c2ccc(Nc3ncc(F)c(-c4cnn(C5CCCC5)c4)n3)cc2F)CC1 [CLJ-17, 5-fluoro-N-(3-fluoro-4-(4-ethylpiperazine-1-yl)phenyl)-4-(1-cyclopentyl-1H-pyrazole-4-yl) pyrimidine-2-amine]",0.1 to 1
